Experimental data as given in US20250241901A1, “ACTIVATION OF MNRR1 / CHCHD2 AS A THERAPEUTIC TARGET FOR MITOCHONDRIA ASSOCIATED DISORDERS” (Wayne State University, priority 2024, published 2025).

Key:
Format in all cases: cell-based, human
[1] = test system: HIF2α; experiment: HIF2α transcript levels (RT-PCR); conditions: 18S rRNA as housekeeper
Description: FIG. 13: RT-PCR for measuring HIF2α levels. 18S rRNA was used as housekeeper for both analyses (n=3 biological replicates).
Real-time polymerase chain reaction (RT-PCR): Total cellular RNA was extracted from MELAS cells with a RNeasy Plus Mini Kit (Qiagen) according to the manufacturer's instructions. Complementary DNA (cDNA) was generated by reverse transcriptase polymerase chain reaction (PCR) using the ProtoScript® II First Strand cDNA Synthesis Kit (New England Biolabs, Ipswich, MA). Transcript levels were measured by real time PCR using SYBR green on an ABI 7500 system. Real-time analysis was performed by the ΔΔ^Ct method. The primers used were MNRR1 forward: 5′-[…]-3′ (SEQ ID NO: 9), reverse: 5′-[…]-3′ (SEQ ID NO: 10); 18s forward: 5′-[…]-3′ (SEQ ID NO: 11), reverse: 5′-[…]-3′ (SEQ ID NO: 12), PHD1(EGLN2) forward: 5′-[…]-3′ (SEQ ID NO: 13), reverse: 3′-TCCTTGGCATCAAAATACC-5′ [32](SEQ ID NO: 14); PHD3(EGLN3) forward 5′-[…]-3′ (SEQ ID NO: 15), reverse: 3′-ATGCAGGTGATGCAGCGA-5′ [33](SEQ ID NO: 16) and HIF2α (EPAS1) forward: 5′-[…]-3′ (SEQ ID NO: 17), reverse: 3′-[…]-5′ (SEQ ID NO: 18).

[2] = test system: MNRR1; experiment: MNRR1 protein levels in MELAS cybrid cells (immunoblot); conditions: 10 μM; for MNRR1 protein levels: DW7 cells, 24 h
Description: FIGS. 6A-6C: FIG. 6A: Above, Chemical structures of nitazoxanide, its metabolites, and similar compounds. Abbreviations: P4, Phenyl-4-aminosalicylic acid; 4ABA, 4-Aminobenzanilide; 4ASA, 4-Amino salicylic acid; BA, Benzanilide; PBO, Phenyl benzoate; PSA, Phenyl salicylic acid; 2AN, 2-Amino 5-nitrothiazole. Below, Equal amounts of lysates of MELAS cells treated with Vehicle (DMSO) or the various compounds (10 μM) for 24 h were separated on an SDS-PAGE gel and probed for MNRR1 levels. Actin was probed as a loading control and numbers below represent an average and SD of 3 biological replicates. FIGS. 6B-6C: MNRR1 transcript levels are shown relative to 18S rRNA (n=4 biological replicates, error bars represent SE). In all figures, * indicates p<0.05, ** indicates p<0.005.
FIGS. 11A-11F: RBPJk and HIF2α compete for binding at the ORE in the MNRR1 promoter to regulate transcription. FIG. 11A: Chromatin immunoprecipitation-qPCR assessing binding of HIF2α to the endogenous MNRR1 promoter in MELAS cybrid cells with 0% (CL9) and 70% heteroplasmy (DW7). FIG. 11B: Dual luciferase reporter assay showing relative activation of MNRR1-luciferase levels in MELAS cybrid cells overexpressing varying proportions of constitutively active RBPJk (RBP-CA) and HIF2α. FIG. 11C: Dual luciferase reporter assay showing relative activation of MNRR1-luciferase levels in MELAS cybrid cells overexpressing the WT (FIG. 9A) or ΔORE (positions 47-53 in SEQ ID NO: 25 in FIG. 9C) promoter with EV (dotted line) or HIF2α. FIG. 11D: Equal amounts of Control or HIFα knockdown (KD) MELAS cybrid cell lysates were separated on an SDS-PAGE gel and probed for HIF2α and MNRR1 levels. Tubulin was probed as loading control. FIG. 11E: Oxygen consumption measured from Control or HIFα knockdown (KD) MELAS cybrid cells. (n=4 biological replicates, error bars represent SE). FIG. 11F: Left, Oxygen consumption measured from MELAS cybrid cells treated with vehicle (DMSO) or PT2385 (10 μM), an inhibitor of HIF2α function, for 24 h. Right, Equal amounts of MELAS cybrid cell lysates treated with vehicle (DMSO) or PT2385 (10 μM) for 24 h, separated on an SDS-PAGE gel, and probed for MNRR1 levels. GAPDH was probed as a loading control.
Immunoblotting: Immunoblotting was performed as described previously. Cell lysates for immunoblotting were prepared using RIPA buffer (Abcam, Waltham, MA) and included a protease and phosphatase inhibitor cocktail (Sigma, St. Louis, MO). […] The clear supernatants were transferred to new tubes and quantified using the Bradford reagent with BSA as standard (BioRad, Hercules. CA). […] For detection after immunoblotting, the SuperSignal™ West Pico PLUS substrate (ThermoFisher, Waltham, MA) was used to generate chemiluminescence signal, which was detected with X-Ray film (RadTech, Vassar, MI).

[3] = test system: MNRR1 promoter; experiment: Dual luciferase reporter assay with MNRR1 promoter deletions in MELAS cybrid cells; conditions: 10 μM, 24 h
Description: FIGS. 9A-9E: Nitazoxanide acts by reducing HIF2α levels in MELAS cells. FIG. 9A: Schematic representation of deleted regions of the MNRR1 promoter. FIG. 9B: Dual luciferase reporter assay using the MNRR1 promoter deletions in cells treated with vehicle (DMSO), nitazoxanide, or tizoxanide (10 μM) for 24 h (n=4 biological replicates). FIG. 9C: DNA sequence of region of 800-952 bp in the MNRR1 promoter (SEQ ID NO: 25) highlighting binding sites of the transcription factors shown. FIG. 9D: Transcript levels of HIF2α and HIF1α in MELAS cybrid cells harboring different levels of heteroplasmy (0% to 100%). Data from. FIG. 9E: Protein levels of HIF2α and HIF1α in cybrid cells with 0% (CL9) and 70% MELAS heteroplasmy (DW7) In all figures, * indicates p<0.05, ** indicates p<0.005.
Luciferase reporter assay: Luciferase assays were performed with the dual-luciferase reporter assay kit (Promega). Briefly, cells were lysed in 1× passive lysis buffer (Promega) and 25 μL of lysate was used for assay with a tube luminometer using an integration time of 10 s. Transfection efficiency was normalized with the co-transfected pRL-SV40 Renilla luciferase expression plasmid.

| SMILES | HIF2α transcript levels [1] | MNRR1 protein levels [2] | MNRR1 levels ([2]; MELAS cybrid cells, 48 h) | activation of MNRR1 promoter with deletion of the 801-952 region [3] |
| --- | --- | --- | --- | --- |
| O=C(Nc1ncc([N+](=O)[O-])s1)c1ccccc1O [tizoxanide, Tizoxanide] | absence of any change | significant increase | increases MNRR1 levels | failed to display activation |
| CC(=O)Oc1ccccc1C(=O)Nc1ncc([N+](=O)[O-])s1 [nitazoxanide, Nitazoxanide] | absence of any change | significant increase |  | failed to display activation |
